Square brackets hold non-standard residues; d marks the D form. Peptide text beside a SMILES is read from it. * marks the point of attachment. Sta = CC(C)C[C@H](N)[C@@H](O)CC(=O)O; Isovaleryl = CC(C)CC(=O)*

A short description of data set [1]: Degradation of EPO incubated at 37° C. under mildly acidic conditions at pH5.0. The note with it: 10X concentrated medium or partially purified step 2 material. The data set is classed as physicochemical. Here is the method: (§1) The addition of a dye column to step 1 gives some additional purification and, more importantly, removes contaminating proteases from EPO and consequently allows higher EPO recoveries at the S-Sepharose Fast Flow step. The clarified media was loaded on a Blue Trisacryl-M column (Pharmacia) equilibrated with 10 mM NaPO4 pH6.0, 150 mM NaCl and eluted with a linear salt gradient of 0.15 to 2.5 M NaCl in 10 mM NaPO4 pH6.0 and then flow-dialyzed into 50 mM Na Acetate, pH5.0 containing 15mM NaCl. The recovery of EPO from the Blue Trisacryl column was almost complete and the recovery on the following S-Sepharose Fast Flow column was 86% compared to 60% in example 1. […] This degradation seems to be caused by proteases that are active at PH5.0. The improved yields in step 2 as illustrated in this example can be attributed to the separation of proteases from the EPO protein by the Blue Trisacryl column. (Other commercially available dyes can also be used.)

The test system of a further data set is rat bone marrow cells. The data set can be described thus: In vitro biological assays (3H-thy uptake assay, 59Fe incorporation into rat bone marrow cells). The data set is classed as cell-based. The note with it: purified rEPO from CES9dog conditioned medium. Here is the method: Foci, representing BPV transformed C127 cells, were detectable 10-14 days after transfection. Supernatants from Plates containing transformants were assayed 17 days after transfection by the ^3 H-thy uptake assay (Krystal 1983, Exp. Hematol., 11/7, 649) and found to contain EPO. 21/2 to 3 weeks after transfection, foci were isolated by the cloning ring method and transferred to T-25 flasks. After the cells reached approximately 20% confluency, the supernatants were tested for EPO production by the ^3 H-thy uptake assay. A total of 76 cell lines (15 CEM, 35 CES and 26 CEG transformants) were transferred into T-75 flasks.
When the cells were confluent, the supernatants were assayed for EPO expression and the cells were counted and frozen. To test the reproducibility and stability of these cell lines, the 21 highest producing cell lines were thawed and rescreened for 24 hours expression levels on a per cell basis. […] Representative 24 hour culture fluids from cell lines CES9dog and CEG4d in T-75 flasks contained 600U/ml and 800U/ml of rEPO as measured by the ^3 H-thy uptake assay using human urinary EPO as a standard and 490 and 540U/ml when measured by the ^59 Fe incorporation assay into rat bone marrow cells in vitro (Goldwasser et al., 1975, Endocrinology 97:315.). […]

A further data set has as its system Polycythemic mouse. Put plainly: Polycythemic mouse assay (in vivo biological assay). The note with it: for biological activity in in vivo assays: purified rEPO from CES9dog conditioned medium. On the procedure: When the cells were confluent, the supernatants were assayed for EPO expression and the cells were counted and frozen. To test the reproducibility and stability of these cell lines, the 21 highest producing cell lines were thawed and rescreened for 24 hours expression levels on a per cell basis. The five highest producers (3CES and 2CEG transformants) were chosen and expanded into roller bottles to test for growth and production properties. Representative 24 hour culture fluids from cell lines CES9dog and CEG4d in T-75 flasks contained 600U/ml and 800U/ml of rEPO as measured by the ^3 H-thy uptake assay using human urinary EPO as a standard and 490 and 540U/ml when measured by the ^59 Fe incorporation assay into rat bone marrow cells in vitro (Goldwasser et al., 1975, Endocrinology 97:315.). These samples were also active in vivo in the Polycythemic mouse assay as described by Cotes et al., 1961, Nature 191:1065.

In data set [2] the test system is proteases that are active at PH5.0. The data set can be described thus: Protease inhibitors preventing EPO degradation at pH5.0 in 10X concentrated EPO medium, assayed by RIA. The class given is biochemical. Here is the method: as §1
Protease inhibitors can also be added to the conditioned medium in order to improve EPO yields. Several commercially available protease inhibitors were tested to see if they could prevent EPO degradation at pH5.0. 10X concentrated (Step 1) EPO medium was diluted 1:10 in 50mM Na Acetate, pH5.0 and then incubated at 37° C. with or without protease inhibitors at a concentration of 5 micrograms/ml. […]

As for “rEPO: recombinant human erythropoietin produced by BPV transformed mouse C127 cells, N- and O-glycosylated”, the t1/2 of degradation entry in data set [1] is “approx. 4 h”. The “biological activity in in vitro assays” value in the data set with rat bone marrow cells is given as “high biological activity”; with rat bone marrow cells (listed as EPO), “high potency”. Also, the “activity in vivo in the Polycythemic mouse assay” value in the data set with Polycythemic mouse (24 hour culture fluids from cell lines CES9dog and CEG4d) is recorded as “active”. Besides, the “biological activity in in vivo assays” value in the data set with Polycythemic mouse is reported as “high biological activity”; with Polycythemic mouse (listed as EPO), “high potency”.

Turning to `CC(C)CC(=O)N[C@H](C(=O)N[C@H](C(=O)N[C@@H](CC(C)C)[C@@H](O)CC(=O)N[C@@H](C)C(=O)N[C@@H](CC(C)C)[C@@H](O)CC(=O)O)C(C)C)C(C)C` [Pepstatin, pepstatin] (Isovaleryl-VV[Sta]A[Sta]-OH), the “effect on EPO immunoactivity at pH5.0” value in data set [2] (5 micrograms/ml, 50mM Na Acetate pH5.0, 37° C., over 29 hours, RIA) was “significant stabilizing effect”. Further, in data set [2] (10X concentrated medium, pH5.0, 37° C., 25 hours, RIA (FIG. 9)), the “IC50 (the concentration at which 50% of the proteases are inhibited)” value is “approximately 0.02 ug/ml”.

The values are drawn from patent publication US4954437A, “Cell encoding recombinant human erythropoietin” (Integrated Genetics, Inc., priority 1986, dated 1990).
